Test results reported in the METLIN SMRT retention time set (Domingo-Almenara et al. 2019).

Test: gradient 5% acetonitrile 3 min, to 50% in 2 min, to 85% in 15 min, held 3 min, 100 µL/min
Conditions: column: Zorbax Extend-C18 2.1 x 50 mm; eluents: water / acetonitrile, 0.1% formic acid
Method in brief: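 Retention times of pure standards were taken from adduct peaks that were selected by computer and manually inspected. Over 3 months, mixtures of ~100 molecules were run by HPLC–quadrupole time-of-flight mass spectrometry in positive and negative ionization mode. The Zorbax Extend-C18 column (2.1 × 50 mm, 1.8 μm) ran at 100 μL/min in water and acetonitrile, each containing 0.1% formic acid, with 40 μL dead volume and 900 μL dwell volume.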

RP-LC retention time [s]	Structure (SMILES)
630	CC(=O)N1C[C@@H](C(=O)NCc2cccs2)[C@H](c2nc(C)no2)C1
1070	Fc1cccc(-n2cc(-c3noc(-c4ccccc4)n3)nn2)c1
649	COc1cc(C)c(C)cc1S(=O)(=O)N1CCN(c2ccc(-c3cccnc3)nn2)CC1
605	COc1cc2nc(SCC(=O)Nc3cc(C)[nH]n3)n3nc(C)nc3c2cc1OC
698	CCNC(=O)c1nc2cc(C)c(C)cc2n(C)c1=O
868	Cc1cc(C)cc(C(=O)NC(c2ccccc2)c2nnc(N3CCCC3)o2)c1 (centres undefined)
1030	C=Cc1ccc(COC(=O)C2=CN(CC)S(=O)(=O)N=C2C)cc1
591	O=C(Cc1cccs1)N1CCCn2nc(-c3ccncc3)cc2C1
704	O=C(NCCc1ccc(N2CCCC2)cc1)c1ccccc1
739	CC(=O)c1cccc(NC(=O)c2cc(-c3cccnc3)nc3ccccc23)c1
731	CCc1nnc2cc(N3CCN(C(=O)c4ccc(C(C)C)cc4)CC3)cnn12
876	CCOC(=O)c1ccc2nc(C(F)(F)F)nc(NCCCN3CCCC3=O)c2c1
1200	COc1ccc(CNS(=O)(=O)c2cc(-c3nc(C(C)(C)C)cs3)cs2)cc1
546	CCCCN(C)C(=O)CCC(=O)Nc1ccc2nc(N3CCN(C)CC3)cc(C)c2c1
543	CN1CCN(CCNC(=O)C2CCc3sc(C(=O)N4CCOCC4)cc3C2)CC1 (centres undefined)
911	CC(C)n1c(=O)oc2cc(-c3noc(CNC(=O)Cc4ccc(Cl)cc4)n3)ccc21
614	Cc1cccc2nnc(N3CCCC(C(=O)N4CCN(c5ccccc5)CC4)C3)n12 (centres undefined)
990	Cc1sc(-c2cc(C(F)(F)F)[nH]n2)cc1S(=O)(=O)NCCc1cccs1
667	CC(C)NC(=O)c1ccc(-c2nc3cc(NS(=O)(=O)Cc4ccccc4)ccc3n2C)cc1
630	CS(=O)(=O)N1CC(c2nc(-c3cccnc3)no2)C2(CCOCC2)C1 (centres undefined)
616	CC(NC(=O)Cn1ncc2c(N3CCN(c4ccccn4)CC3)ncnc21)c1ccccc1 (centres undefined)
1170	O=S(=O)(c1ccc(Br)cc1)N1CCc2nc(-c3ccc(F)cc3)ncc2C1

RP-LC retention time [s]	Structure (SMILES)
590	O=C(Cc1ccsc1)N1CCC2(CC1)CC(N1CCCCC1)CCO2 (centres undefined)
610	COc1cccc(OCC(O)CN2CCN(Cc3ccccc3)CC2)c1 (centres undefined)
930	Cc1sc2ccn(CC(C)C)c(=O)c2c1C(=O)NCc1ccccc1
587	CCCC(=O)Nc1ccc(-c2cn3ccc(C)nc3n2)cc1
655	CNC(=O)C1CCN(S(=O)(=O)Cc2ccccc2)CC1
595	O=C1CC(NC(=O)Nc2ccccc2C(F)(F)F)CN1 (centres undefined)
933	N#Cc1ccc(NC(=O)Cn2cccc(-c3nc(-c4ccc(Cl)cc4)no3)c2=O)cc1
665	CCCCN(C(=O)C1CC1)C1CCS(=O)(=O)C1 (centres undefined)
946	Cc1ccc(Cl)cc1NC(=O)NCCc1cn(CC(C)C)c2ncccc12
869	CCCNS(=O)(=O)c1cc(-c2nc(C)cs2)n(CC(=O)N2CCCCC2)c1
603	Cc1cc(C)n(CCNC(=O)Nc2cccs2)n1
894	CCn1c(=O)c(C)nc2cc(-c3noc(-c4cc(OC)cc(OC)c4)n3)ccc21
882	CNC(=O)c1ccsc1NC(=O)c1ccc(Cl)s1
780	CN(C)C(=O)c1ccc2c(c1)n(Cc1ccc(F)cc1)c(=O)c1ccnn12
730	COc1ccccc1Nc1c(-c2ccc(C(=O)O)cc2)nc2cnccn12
1040	COc1ccc(NC(=O)Cn2nc3cc(C)nc(Nc4ccc(C)c(F)c4)n3c2=O)cc1
1090	CCOc1ccc(-n2ccnc(NC(=O)Nc3ccc(C)c(C)c3)c2=O)cc1
1130	COc1ccc(Br)c2c1-c1nc(NC(=O)c3ccccc3F)sc1C2
720	CCn1nc(C)c(CCNC(=O)c2ccc3nc(Cc4ccccc4)oc3c2)c1C
740	COc1ccc(CC(=O)Nc2cnn(-c3ncc(N(C)C)cn3)c2)cc1Cl
695	Cc1ccc(S(=O)(=O)Nc2ccc3c(c2)nc(-c2ccc(C(=O)NC(C)C)cc2)n3C)cc1
792	Cc1ccc(C(=O)N2CCCCCCNC(=O)[C@@H]3CCC[C@@H]32)s1

RP-LC retention time [s]	Structure (SMILES)
1280	COc1cccc(-c2csc(Cc3nc(-c4ccc(Br)cc4)no3)n2)c1
729	CCCCOc1ccc(-c2cc3c4nnc(CCC(=O)N5CCC(C(N)=O)CC5)n4ccn3n2)cc1
808	COc1ccc(-c2nn(Cc3ccccc3F)c(=O)c3nc(C)sc23)cc1OC
817	O=C(NCCc1csc(-c2cccs2)n1)C1CCN(C(=O)C2CCCCC2)CC1
592	Cc1ccc2c(Nc3ccc4c(c3)OCCO4)c(C(=O)N3CCCC3)cnc2n1
1020	CCC1Oc2ccc(S(=O)(=O)N3CCC(C(=O)Nc4ccc(C)c(Cl)c4)CC3)cc2NC1=O (centres undefined)
920	O=C(CN1CCN(Cc2cccc(Cl)c2)C1=O)NCC1CCCCC1
570	CNC(=O)C1CN(C(=O)c2ccc(OC)cc2)CC12CCCC2 (centres undefined)
646	CCc1nc2c(NC(=O)COC)cccn2n1
697	CCOc1ccc(-c2nc3ncccn3c2NCc2ccccc2)cc1OC
680	Cc1nn(CC(=O)N2CCCC2)c(=O)c2nc(C(C)C)sc12
1010	CCN1C(=O)COc2ccc(-c3noc(C4CC(=O)N(c5cccc(Cl)c5)C4)n3)cc21 (centres undefined)
753	CCn1ccc(C(=O)N2CCN(c3ccc(=O)n(-c4ccc(Cl)cc4)n3)CC2)n1
699	CCNC(=O)C1CCCN(S(=O)(=O)c2cc(OC)ccc2OC)C1 (centres undefined)
940	O=C(Nc1ccccc1F)N1CCC(N2C(=O)C3(CCCCC3)C2c2ccccc2)CC1 (centres undefined)
1040	CCc1ccccc1NC(=O)CSc1cc(N2CCN(c3ccccc3OC)CC2)ncn1
587	COc1cc(C(=O)N2CCN(c3cc(C)n4c(C)nnc4n3)CC2)cc(OC)c1OC
719	Cc1ccc(CN2C[C@@H]3C(=O)N(CCc4ccccc4)C(=O)[C@@H]3C2)o1
757	COc1ccccc1CNC(=O)C1CCCN1S(=O)(=O)c1cc2c(cc1C)NC(=O)C(C)O2 (centres undefined)
722	CC(C)N1C(=O)C2(CCCCC2)C1C(=O)N1CCCCC1 (centres undefined)
985	Cc1ccc(NC(=O)Cn2cccc2-c2nnc(C3CCC3)o2)cc1C
617	COc1ccc(NC(=O)Cn2nc3nc(N4CCCC4)ccn3c2=O)cc1OC

RP-LC retention time [s]	Structure (SMILES)
637	COC[C@@H]1CN(S(=O)(=O)Cc2ccccc2)C[C@H]1c1ccncc1
747	Cc1ccccc1NC(=O)N1CCC2(CC1)NC(=O)c1ccc(F)cc1N2C
660	CC(C)NC(=O)C1CCCN(c2nc3ncn(CC(=O)NCc4cccs4)c(=O)c3s2)C1 (centres undefined)
825	CCN(CC)c1ccc(NC(=O)C2CCCN(c3nc4ccccc4nc3C(F)(F)F)C2)c(C)c1 (centres undefined)
1100	Cc1ccccc1-n1c(=O)c2sccc2n(Cc2nc(-c3cccc(C(F)(F)F)c3)no2)c1=O
781	Cc1ccc(-c2ccc(=O)n(Cc3noc(C(=O)NCCc4ccc(S(N)(=O)=O)cc4)n3)n2)cc1
1070	CCOC(=O)c1ccc(NC(=O)c2cnn(-c3ccc(Br)cc3)c2)cc1
895	Cc1cc(C)c2sc(NC(=O)C3=COCCO3)nc2c1
610	O=C(Cc1c[nH]c2ccccc12)N1CCN(C(=O)c2cc(-c3cccnc3)n[nH]2)CC1
1180	Cc1cccc(Sc2nccnc2N2CCCC(C(=O)NCc3cccc(Cl)c3)C2)c1 (centres undefined)
646	O=C(NCc1ccc(F)cc1F)C1CCN(c2ccc(SCc3ccccc3)nn2)CC1
862	O=C(c1cc2ccccc2[nH]1)N1CC2CN(S(=O)(=O)c3cccc(F)c3)CC(C1)O2
764	CCSc1ccccc1C(=O)Nc1nnc(Cc2cccs2)o1
622	Cc1nc(CCNC(=O)[C@H]2CCCN2C(=O)c2ccccc2)cs1
898	Cc1cc(-c2ccc(C)c(S(=O)(=O)Nc3ccc(Cl)cc3)c2)n[nH]1
1020	O=C(CCC1CCCC1)NC1(c2nc(-c3cccnc3)no2)CCCCC1
560	CCC(C(=O)NCCCN1CCN(C)CC1)n1c2ccccc2c2cnn(C)c(=O)c21 (centres undefined)
753	CCS(=O)(=O)Nc1cccc(C2=NN(S(=O)(=O)CC)C(c3ccco3)C2)c1 (centres undefined)
780	COc1ccc(C2CC(=O)Nc3c(C(=O)O)cn(-c4cccc(C(F)(F)F)c4)c32)cc1OC (centres undefined)
852	Cc1ccc(CNC(=O)c2nnc(-c3ccc(S(=O)(=O)N4CCCC4)cc3)o2)o1
1190	CC(C)c1csc(-c2csc(S(=O)(=O)NCc3ccc(Br)cc3)c2)n1
745	O=C(CSc1nnnn1-c1ccccc1)NCCc1ccc2c(c1)OCCO2

Structure (SMILES)	RP-LC retention time [s]
COc1ccc(C(=O)N2CCC3(C2)C(=O)Nc2ccc(OC)cc23)cc1 (centres undefined)	683
